Where a SMILES comes first, the peptide text is derived from it.
Experiments:
Format in all cases: in vivo, BALB/C mice
[1] = system: white blood cells; assay: White blood cell counts in mice during three cycles of Ara-C chemotherapy
Method: (§1) A number of assays were performed to show the effect of combining the hemopoiesis inhibitory factor and hemopoiesis growth factor on the proliferation of hemopoietic cells during chemotherapy.
(§2) Three groups of BALB/C mice were used in this study. Mice of the three groups were treated as follows (i.e., with Ara-C, the abbreviation of cytosine arabinoside, as the cytotoxic agent, AcSDKP as the hemopoiesis inhibitory factor, and GM-CSF as the hemopoiesis growth factor):
(§3) In each group, the animals were subjected to a sequence of three cycles of chemotherapy, i.e., Cycle I (Days 0-20), Cycle II (Days 21-37), and Cycle III (Days 38-56). Note that animals in each group were sacrificed on specific days for collection of blood samples, eliminating the artifact that may have been induced by intensive repetitive bleedings of the same animals.
(§4) Minipump implantations and excisions: The 200 μl capacity ALZET™ osmotic minipump Model 2001 (Alza Corporation, Palo Alto, Calif.) primed to deliver 1.0 μL/hour for 7 days was used for continuously administering the 100 ng/hour of AcSDKP in each cycle. More specifically, during each cycle, AcSDKP primed pumps were implanted s.c. prior to the first administration of Ara-C in the A.M. of day zero and excised in the A.M. of day 7. The first administration of Ara-C was in the A.M. of day zero and the last administration in the A.M. of day 6 (q.d., or once per day).
(§5) Treatment cycle: For the animals of Group 3, each cycle consists of a period in which Ara-C and AcSDKP were administered, a period in which the administered Ara-C and AcSDKP were purged, a period in which GM-CSF was administered, and, finally, a further recovery period. More specifically, after 7 consecutive days of Ara-C treatment during which time AcSDKP was administered by continuous s.c. infusion (see the preceding paragraph), a 2-day period followed so as to allow for purging of both AcSDKP and Ara-C. GM-CSF was then administered for 4 days (b.i.d., or twice per day), and the animals were permitted 4-8 more days at the end of the GM-CSF administration to recover before the initiation of the subsequent cycle (as in Cycles I and II) or before the collection of the last blood samples (as in Cycle III).
(§6) Blood sample collection: Blood samples (maximum attainable volume) for clinical pathology evaluations were collected from mice at euthanasia. The mice were food-fasted overnight prior to blood collection and samples were collected by puncture of the retro-orbital sinus after anesthetization by CO2 inhalation.
(§7) Analysis of blood samples: Hematology data were collected electronically and processed by the HUMMINGBIRD™ computer system (Laboratories Consulting, Inc., Madison, Wis.). Blood samples were processed and evaluated for the parameters specified (polymorphonuclear cell, platelet, and white blood cell counts in 10^3 cells/[…] as shown in Tables 2 and 3) using a Sysmex TOAE-2500 hematology analyzer (TOA Medical Electronics, Kobe, Japan).
(§8) See the right-hand column "percent change," i.e., (cell count from Group 2/cell count from Group 1)×100%, in Table 2. The data in Table 2 (as well as in Table 3) are log transformed to minimize the effect of outliers and the geometric means of the data are used for the analyses. The difference in the means between two test groups are compared for each of three different stages, i.e., chemotherapy (days 0-4, 21-25 and 38-42 in Cycles I, II and III, respectively), nadir (days 5-10, 26-31 and 43-48 in Cycles I, II and III, respectively), or recovery (days 11-20, 32-37 and 49-56 in Cycles I, II and III, respectively). Significant differences are marked by a large dot, which stands for P<0.003, a statistically significant p-value for data compared between two groups combined over the three cycles.

[2] = system: polymorphonuclear cells; assay: Polymorphonuclear cell counts in mice during three cycles of Ara-C chemotherapy
Method: as §1, §2, §3, §4, §5, §6, §7
as §8, with “The” for “See the right-hand column "percent change," i.e., (cell count from Group 2/cell count from Group 1)×100%, in Table 2. The”

[3] = system: platelets; assay: Platelet counts in mice during three cycles of Ara-C chemotherapy
Method: as §1, §2, §3, §4, §5, §6, §7, §8

[4] = system: hemopoietic cells; assay: Proliferation of hemopoietic cells and tolerance of multiple cycles of Ara-C chemotherapy
Method: as §1, §2, §3, §4
Treatment cycle: For the animals of Group 3, each cycle consists of a period in which Ara-C and AcSDKP were administered, a period in which the administered Ara-C and AcSDKP were purged, a period in which GM-CSF was administered, and, finally, a further recovery period. More specifically, after 7 consecutive days of Ara-C treatment during which time AcSDKP was administered by continuous s.c. infusion (see the preceding paragraph), a 2-day period followed so as to allow for purging of both AcSDKP and Ara-C. […]

[5] = Group 3 (Ara-C+AcSDKP+GM-CSF) vs Group 2 (Ara-C+GM-CSF), Cycle I, Chemotherapy (days 0-4)
[6] = Group 3 (Ara-C+AcSDKP+GM-CSF) vs Group 2 (Ara-C+GM-CSF), Cycle I, Nadir (days 5-10)
[7] = Group 3 (Ara-C+AcSDKP+GM-CSF) vs Group 2 (Ara-C+GM-CSF), Cycle I, Recovery (days 11-20), marked significant
[8] = Group 3 (Ara-C+AcSDKP+GM-CSF) vs Group 2 (Ara-C+GM-CSF), Cycle II, Chemotherapy (days 21-25)
[9] = Group 3 (Ara-C+AcSDKP+GM-CSF) vs Group 2 (Ara-C+GM-CSF), Cycle II, Nadir (days 26-31)
[10] = Group 3 (Ara-C+AcSDKP+GM-CSF) vs Group 2 (Ara-C+GM-CSF), Cycle II, Recovery (days 32-37), marked significant
[11] = Group 3 (Ara-C+AcSDKP+GM-CSF) vs Group 2 (Ara-C+GM-CSF), Cycle III, Chemotherapy (days 38-42)
[12] = Group 3 (Ara-C+AcSDKP+GM-CSF) vs Group 2 (Ara-C+GM-CSF), Cycle III, Nadir (days 43-48)
[13] = Group 3 (Ara-C+AcSDKP+GM-CSF) vs Group 2 (Ara-C+GM-CSF), Cycle III, Recovery (days 49-56), marked significant
[14] = Group 2 (Ara-C+GM-CSF) vs Group 1 (Ara-C), Cycle I, Chemotherapy (days 0-4)
[15] = Group 2 (Ara-C+GM-CSF) vs Group 1 (Ara-C), Cycle I, Nadir (days 5-10)
[16] = Group 2 (Ara-C+GM-CSF) vs Group 1 (Ara-C), Cycle I, Recovery (days 11-20)
[17] = Group 2 (Ara-C+GM-CSF) vs Group 1 (Ara-C), Cycle II, Chemotherapy (days 21-25)
[18] = Group 2 (Ara-C+GM-CSF) vs Group 1 (Ara-C), Cycle II, Nadir (days 26-31)
[19] = Group 2 (Ara-C+GM-CSF) vs Group 1 (Ara-C), Cycle II, Recovery (days 32-37)
[20] = Group 2 (Ara-C+GM-CSF) vs Group 1 (Ara-C), Cycle III, Chemotherapy (days 38-42)
[21] = Group 2 (Ara-C+GM-CSF) vs Group 1 (Ara-C), Cycle III, Nadir (days 43-48)
[22] = Group 2 (Ara-C+GM-CSF) vs Group 1 (Ara-C), Cycle III, Recovery (days 49-56)

Compound: CC(=O)N[C@@H](CO)C(=O)N[C@@H](CC(=O)O)C(=O)N[C@@H](CCCCN)C(=O)N1CCC[C@H]1C(=O)O [AcSDKP, N-Acetyl-Ser-Asp-Lys-Pro] (Ac-SDKP-OH)
- Percent change, white blood cell count [1, 5]: -39.0687%
- Percent change, white blood cell count [1, 6]: -47.8669%
- Percent change, white blood cell count [1, 7]: 29.1779%
- Percent change, white blood cell count [1, 8]: -57.7294%
- Percent change, white blood cell count [1, 9]: -10.6607%
- Percent change, white blood cell count [1, 10]: 44.2989%
- Percent change, white blood cell count [1, 11]: 19.207%
- Percent change, white blood cell count [1, 12]: -9.4556%
- Percent change, white blood cell count [1, 13]: 50.2142%
- White blood cell counts, change in words ([1]; Group 3 (Ara-C+AcSDKP+GM-CSF) vs Group 2 (Ara-C+GM-CSF), recovery periods, p=0.0001): significantly increased
- Percent change, polymorphonuclear cell count [2, 5]: -66.466%
- Percent change, polymorphonuclear cell count [2, 6]: -27.344%
- Percent change, polymorphonuclear cell count [2, 7]: 52.314%
- Percent change, polymorphonuclear cell count [2, 8]: -44.682%
- Percent change, polymorphonuclear cell count [2, 9]: 130.128%
- Percent change, polymorphonuclear cell count [2, 10]: 100.223%
- Percent change, polymorphonuclear cell count [2, 11]: 37.246%
- Percent change, polymorphonuclear cell count [2, 12]: 42.105%
- Percent change, polymorphonuclear cell count [2, 13]: 95.829%
- Polymorphonuclear cell counts, change in words ([2]; Group 3 (Ara-C+AcSDKP+GM-CSF) vs Group 2 (Ara-C+GM-CSF), recovery periods, p=<0.0001): significantly increased
- Percent change, platelet count [3, 5]: -53.4439%
- Percent change, platelet count ([3]; Group 3 (Ara-C+AcSDKP+GM-CSF) vs Group 2 (Ara-C+GM-CSF), Cycle I, Nadir (days 5-10), marked significant): 20.9005%
- Percent change, platelet count ([3]; Group 3 (Ara-C+AcSDKP+GM-CSF) vs Group 2 (Ara-C+GM-CSF), Cycle I, Recovery (days 11-20)): 23.6811%
- Percent change, platelet count [3, 8]: 29.203%
- Percent change, platelet count ([3]; Group 3 (Ara-C+AcSDKP+GM-CSF) vs Group 2 (Ara-C+GM-CSF), Cycle II, Nadir (days 26-31), marked significant): 49.9274%
- Percent change, platelet count ([3]; Group 3 (Ara-C+AcSDKP+GM-CSF) vs Group 2 (Ara-C+GM-CSF), Cycle II, Recovery (days 32-37)): 13.851%
- Percent change, platelet count [3, 11]: 36.6101%
- Percent change, platelet count ([3]; Group 3 (Ara-C+AcSDKP+GM-CSF) vs Group 2 (Ara-C+GM-CSF), Cycle III, Nadir (days 43-48), marked significant): 32.1586%
- Percent change, platelet count ([3]; Group 3 (Ara-C+AcSDKP+GM-CSF) vs Group 2 (Ara-C+GM-CSF), Cycle III, Recovery (days 49-56)): -0.7018%
- Platelet counts, change in words ([3]; Group 3 (Ara-C+AcSDKP+GM-CSF) vs Group 2 (Ara-C+GM-CSF), nadir periods, p=0.0006): significantly increased
- Blood cell levels, effect of AcSDKP present during chemotherapy ([4]; Group 3 (Ara-C+AcSDKP+GM-CSF) vs Group 2 (Ara-C+GM-CSF)): contributed to subsequent enhancement of blood cell levels by GM-CSF
- Ability to tolerate multiple cycles of chemotherapy ([4]; combined use of AcSDKP and GM-CSF with Ara-C (Group 3)): allows multiple cycles of chemotherapy

Compound: GM-CSF: granulocyte/macrophage-colony stimulating factor, the hemopoiesis growth factor, procured from Immunix Research and Development Corp.
- Percent change, white blood cell count [1, 14]: -9.1838%
- Percent change, white blood cell count [1, 15]: 17.5916%
- Percent change, white blood cell count [1, 16]: 5.3418%
- Percent change, white blood cell count [1, 17]: 43.1551%
- Percent change, white blood cell count [1, 18]: 40.2987%
- Percent change, white blood cell count [1, 19]: -7.2022%
- Percent change, white blood cell count [1, 20]: 7.717%
- Percent change, white blood cell count [1, 21]: -9.5103%
- Percent change, white blood cell count [1, 22]: -0.8913%
- White blood cell counts, change in words ([1]; Group 2 (Ara-C+GM-CSF) vs Group 1 (Ara-C), recovery period of Cycles II and III): decreased
- Percent change, polymorphonuclear cell count [2, 14]: -0.2001%
- Percent change, polymorphonuclear cell count [2, 15]: 23.1962%
- Percent change, polymorphonuclear cell count [2, 16]: 21.7299%
- Percent change, polymorphonuclear cell count [2, 17]: 19.8969%
- Percent change, polymorphonuclear cell count [2, 18]: 9.4827%
- Percent change, polymorphonuclear cell count [2, 19]: -10.9401%
- Percent change, polymorphonuclear cell count [2, 20]: 29.7855%
- Percent change, polymorphonuclear cell count [2, 21]: 1.6526%
- Percent change, polymorphonuclear cell count [2, 22]: -0.7213%
- Percent change, platelet count [3, 14]: 30.5966%
- Percent change, platelet count [3, 15]: 0.0332%
- Percent change, platelet count ([3]; Group 2 (Ara-C+GM-CSF) vs Group 1 (Ara-C), Cycle I, Recovery (days 11-20), marked significant): 10.6804%
- Percent change, platelet count [3, 17]: 0.5878%
- Percent change, platelet count [3, 18]: 0.0259%
- Percent change, platelet count ([3]; Group 2 (Ara-C+GM-CSF) vs Group 1 (Ara-C), Cycle II, Recovery (days 32-37), marked significant): 20.4577%
- Percent change, platelet count [3, 20]: 15.5436%
- Percent change, platelet count [3, 21]: 14.0708%
- Percent change, platelet count ([3]; Group 2 (Ara-C+GM-CSF) vs Group 1 (Ara-C), Cycle III, Recovery (days 49-56), marked significant): 11.9135%
- Platelet counts, change in words ([3]; Group 2 (Ara-C+GM-CSF) vs Group 1 (Ara-C), recovery periods, three cycles combined, p=0.0003): significantly increased
- Ability of the animals to tolerate multiple cycles of chemotherapy ([4]; Group 2 (Ara-C+GM-CSF) vs Group 1 (Ara-C)): did not enhance

Reference: patent US5595973A, “Protection of hemopoietic cells during chemotherapy or radiotherapy” (Biomeasure Incorporated, priority 1994, dated 1997)
